Holding throughout (assay type): ADME
The test system of data set [1] is CYP3A4 / CYP2A6. Briefly: Selectivity ratio of Ki for non-competitive inhibition of CYP3A4 (unknown origin) to ratio of Ki for competitive inhibition of CYP2A6 (unknown origin). The following applies: human; read-out: Ratio Ki.
Data set [2] addresses T1, Cytochrome P450 3A4 (Homo sapiens, UniProt P08684). Kind of data set: Non competitive inhibition of CYP3A4 (unknown origin).
The target in data set [3] is T2, Cytochrome P450 2A6 (Homo sapiens, UniProt P11509).
T2 sequence (P11509 whole entry): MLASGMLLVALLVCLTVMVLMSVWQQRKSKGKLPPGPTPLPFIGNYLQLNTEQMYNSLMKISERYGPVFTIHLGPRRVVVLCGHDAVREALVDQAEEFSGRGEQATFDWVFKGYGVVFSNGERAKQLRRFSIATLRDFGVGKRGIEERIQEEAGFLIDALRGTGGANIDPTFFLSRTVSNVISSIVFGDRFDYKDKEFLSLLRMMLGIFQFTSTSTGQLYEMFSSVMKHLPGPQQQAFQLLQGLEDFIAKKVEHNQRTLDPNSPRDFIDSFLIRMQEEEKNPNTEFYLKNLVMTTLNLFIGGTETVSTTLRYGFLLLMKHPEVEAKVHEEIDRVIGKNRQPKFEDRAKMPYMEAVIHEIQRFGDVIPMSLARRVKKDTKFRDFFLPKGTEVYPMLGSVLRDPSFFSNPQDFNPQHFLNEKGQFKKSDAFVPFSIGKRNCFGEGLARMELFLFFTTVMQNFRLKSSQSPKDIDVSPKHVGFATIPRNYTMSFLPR
Kind of data set: Inhibition of CYP2A6 (unknown origin).

Data set [4] has as its target T2, Cytochrome P450 2A6. Kind of data set: Competitive inhibition of CYP2A6 (unknown origin).
Data set [5] has as its target T1, Cytochrome P450 3A4. Briefly: Inhibition of CYP3A4 (unknown origin).
Data set [6] has as its target T3, CYP2A6 (Homo sapiens, UniProt P11509).
T3 sequence (P11509 whole entry): T2 sequence (P11509 whole entry)
Kind of data set: Inhibition of CYP2A6 (unknown origin) assessed as residual activity preincubated for 10 mins.

Data set [7] deals with T1, Cytochrome P450 3A4. Kind of data set: Mixed type inhibition of CYP3A4 (unknown origin).
Data set [8] has as its system CYP3A4 / CYP2A6. Briefly: Selectivity ratio of Ki for mixed type inhibition of CYP3A4 (unknown origin) to ratio of Ki for competitive inhibition of CYP2A6 (unknown origin). The conditions noted are these: human; read-out: Ratio Ki.
Data set [9] has as its system CYP3A4 / CYP2A6. Kind of data set: Selectivity ratio of Ki for non-competitive inhibition of CYP3A4 (unknown origin) to ratio of Ki for mixed type inhibition of CYP2A6 (unknown origin). The conditions noted are these: human; read-out: Ratio Ki.
The target in data set [10] is T2, Cytochrome P450 2A6. Briefly: Mixed type inhibition of CYP2A6 (unknown origin).

The source of these data is ChEMBL document CHEMBL5252607, “Synthesis and biological evaluation of coumarin derivatives as selective CYP2A6 inhibitors” (Bioorg Med Chem Lett, 2023).

In general, Ki refers to the dissociation constant of the complex between target and ligand, obtained from inhibition or displacement. A lower Ki goes with a stronger hold on the target. The term IC50 denotes the concentration that inhibits the measured activity by half. The low end stands for greater potency in that assay, the high end for weaker potency in that assay.

SMILES strings stand for the structures.

T1 sequence (P08684 whole entry): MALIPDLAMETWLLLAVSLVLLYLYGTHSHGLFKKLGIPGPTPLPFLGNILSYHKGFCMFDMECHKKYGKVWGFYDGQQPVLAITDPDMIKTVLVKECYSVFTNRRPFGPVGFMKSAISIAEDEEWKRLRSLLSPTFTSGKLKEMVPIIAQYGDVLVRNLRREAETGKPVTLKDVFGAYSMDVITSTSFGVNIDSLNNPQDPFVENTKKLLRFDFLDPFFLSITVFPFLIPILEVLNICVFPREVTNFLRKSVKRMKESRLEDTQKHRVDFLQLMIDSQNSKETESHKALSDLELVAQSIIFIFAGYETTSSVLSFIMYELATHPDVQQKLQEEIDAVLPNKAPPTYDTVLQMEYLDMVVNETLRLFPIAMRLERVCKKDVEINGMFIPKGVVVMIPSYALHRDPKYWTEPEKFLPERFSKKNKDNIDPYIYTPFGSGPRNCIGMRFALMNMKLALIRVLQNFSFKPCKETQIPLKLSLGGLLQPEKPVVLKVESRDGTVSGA

With `CCOc1cccc2oc(=O)ccc12`, the selectivity ratio in data set [1] was 5300. The Ki worked out at 424000 nM in data set [2] and 80 nM in data set [4]. Besides, in [3], the half-maximal inhibitory concentration (IC50) came out at 170 nM.
Take `COc1cccc2ccc(=O)oc12`: the IC50 was greater than 250000 nM in [5] and 7470 nM in [3]. In addition, the activity in data set [6] was 62%. In addition, affinity in data set [4] was put at a Ki of 4000 nM.
As for `C=CCOc1cccc2oc(=O)ccc12`, the Ki in data set [7] stood at 28100 nM; in data set [4], 30 nM. Moreover, in [8], the selectivity ratio came out at 937. This molecule also returned an IC50 in [3] of 50 nM.
For `COc1ccc2oc(=O)ccc2c1`, the IC50 in data set [5] is greater than 250000 nM; in data set [3] it was 200 nM. For the same molecule, in data set [4], the affinity corresponds to a Ki of 250 nM.
In the case of `COc1cccc2oc(=O)ccc12`, the values for the Ki in data set [2] and in [10] were 448000 nM and 50 nM, respectively. In data set [9], the selectivity ratio is 8970. Moreover, the IC50 in data set [3] was found to be 130 nM.
In the case of `COc1c2occc2cc2ccc(=O)oc12` [METHOXSALEN], in data set [6], the activity came out at 52%.
Turning to `CCCOc1cccc2oc(=O)ccc12`, the IC50 in [5] is greater than 250000 nM; in [3] it was 1060 nM. In addition, the inhibition constant Ki in [4] is 540 nM.
As to `C#CCOc1cccc2oc(=O)ccc12`, the values for the inhibitory constant (Ki) in data set [7] and in data set [4] were 46600 nM and 10 nM, respectively. The activity in data set [6] was 57%. The selectivity ratio in data set [8] was 4660. In addition, in data set [3], half-maximal inhibition (IC50) was put at 40 nM.
